Measured values as given in publication PMC8330742, “New benzothieno[2,3-c]pyridines as non-steroidal CYP17 inhibitors: design, synthesis, anticancer screening, apoptosis induction, and in silico ADME profile studies” (Journal of Enzyme Inhibition and Medicinal Chemistry, 2021).

Assays:
SR = experiment: NCI-60 SRB screen; assay type: cell-based; conditions: Homo sapiens, single dose 10^−5 M, read-out: Growth inhibition (%)
OVCAR-3 = experiment: NCI-60 SRB screen; assay type: cell-based, human; conditions: Homo sapiens; OVCAR-3; single dose 10^−5 M; read-out: Growth inhibition (%)
NCI-H522 = experiment: NCI-60 SRB screen; assay type: cell-based, human; conditions: Homo sapiens; NCI-H522; single dose 10^−5 M; read-out: Growth inhibition (%)
MOLT-4 = experiment: NCI-60 SRB screen; assay type: cell-based; conditions: Homo sapiens; MOLT-4; single dose 10^−5 M; read-out: Growth inhibition (%)
HL-60(TB) = experiment: NCI-60 SRB screen; assay type: cell-based, human; conditions: Homo sapiens; HL-60 (TB); single dose 10^−5 M; read-out: Growth inhibition (%)
SF-295 = experiment: NCI-60 SRB screen; assay type: cell-based, human; conditions: Homo sapiens; SF-295; single dose 10^−5 M; read-out: Growth inhibition (%)
OVCAR-4 = experiment: NCI-60 SRB screen; assay type: cell-based, human; conditions: Homo sapiens; OVCAR-4; single dose 10^−5 M; read-out: Growth inhibition (%)
SW-620 = experiment: NCI-60 SRB screen; assay type: cell-based; conditions: Homo sapiens; SW-620; single dose 10^−5 M; read-out: Growth inhibition (%)
SK-OV-3 = experiment: NCI-60 SRB screen; assay type: cell-based, human; conditions: Homo sapiens; SK-OV-3; single dose 10^−5 M; read-out: Growth inhibition (%)
LOX IMVI = experiment: NCI-60 SRB screen; assay type: cell-based, human; conditions: Homo sapiens, single dose 10^−5 M, read-out: Growth inhibition (%)
NCI-H322M = experiment: NCI-60 SRB screen; assay type: cell-based, human; conditions: Homo sapiens, single dose 10^−5 M, read-out: Growth inhibition (%)
M14 = experiment: NCI-60 SRB screen; assay type: cell-based, human; conditions: Homo sapiens; M14; single dose 10^−5 M; read-out: Growth inhibition (%)
UO-31 = experiment: NCI-60 SRB screen; assay type: cell-based, human; conditions: Homo sapiens; UO-31; single dose 10^−5 M; read-out: Growth inhibition (%)
MALME-3M = experiment: NCI-60 SRB screen; assay type: cell-based, human; conditions: Homo sapiens, single dose 10^−5 M, read-out: Growth inhibition (%)
IGROV1 = experiment: NCI-60 SRB screen; assay type: cell-based, human; conditions: Homo sapiens, IGROV-1; IGROV1; single dose 10^−5 M; read-out: Growth inhibition (%)
ACHN = experiment: NCI-60 SRB screen; assay type: cell-based; conditions: Homo sapiens, single dose 10^−5 M, read-out: Growth inhibition (%)
HOP-92 = experiment: NCI-60 SRB screen; assay type: cell-based, human; conditions: Homo sapiens; HOP-92; single dose 10^−5 M; read-out: Growth inhibition (%)
COLO 205 = experiment: NCI-60 SRB screen; assay type: cell-based, human; conditions: Homo sapiens; COLO 205; single dose 10^−5 M; read-out: Growth inhibition (%)
SN12C = experiment: NCI-60 SRB screen; assay type: cell-based, human; conditions: Homo sapiens, SN12C; SN 12 C; single dose 10^−5 M; read-out: Growth inhibition (%)
HCC-2998 = experiment: NCI-60 SRB screen; assay type: cell-based, human; conditions: Homo sapiens; HCC-2998; single dose 10^−5 M; read-out: Growth inhibition (%)
SF-268 = experiment: NCI-60 SRB screen; assay type: cell-based, human; conditions: Homo sapiens; SF-268; single dose 10^−5 M; read-out: Growth inhibition (%)
OVCAR-8 = experiment: NCI-60 SRB screen; assay type: cell-based, human; conditions: Homo sapiens; OVCAR-8; single dose 10^−5 M; read-out: Growth inhibition (%)
786-0 = experiment: NCI-60 SRB screen; assay type: cell-based; conditions: Homo sapiens; 786-0; single dose 10^−5 M; read-out: Growth inhibition (%)
NCI-H226 = experiment: NCI-60 SRB screen; assay type: cell-based, human; conditions: Homo sapiens; NCI-H226; single dose 10^−5 M; read-out: Growth inhibition (%)
HOP-62 = experiment: NCI-60 SRB screen; assay type: cell-based, human; conditions: Homo sapiens; HOP-62; single dose 10^−5 M; read-out: Growth inhibition (%)
SK-MEL-5 = experiment: NCI-60 SRB screen; assay type: cell-based, human; conditions: Homo sapiens; SK-MEL-5; single dose 10^−5 M; read-out: Growth inhibition (%)
HCT-15 = experiment: NCI-60 SRB screen; assay type: cell-based, human; conditions: Homo sapiens; HCT-15; single dose 10^−5 M; read-out: Growth inhibition (%)
K-562 = experiment: NCI-60 SRB screen; assay type: cell-based, human; conditions: Homo sapiens, K562; K-562; single dose 10^−5 M; read-out: Growth inhibition (%)
HCT-116 = experiment: NCI-60 SRB screen; assay type: cell-based, human; conditions: Homo sapiens; HCT-116; single dose 10^−5 M; read-out: Growth inhibition (%)
A549/ATCC = experiment: NCI-60 SRB screen; assay type: cell-based, human; conditions: Homo sapiens, single dose 10^−5 M, read-out: Growth inhibition (%)
NCI-H460 = experiment: NCI-60 SRB screen; assay type: cell-based, human; conditions: Homo sapiens; NCI-H460; single dose 10^−5 M; read-out: Growth inhibition (%)
EKVX = experiment: NCI-60 SRB screen; assay type: cell-based, human; conditions: Homo sapiens, single dose 10^−5 M, read-out: Growth inhibition (%)
TK-10 = experiment: NCI-60 SRB screen; assay type: cell-based, human; conditions: Homo sapiens; TK-10; single dose 10^−5 M; read-out: Growth inhibition (%)
SK-MEL-28 = experiment: NCI-60 SRB screen; assay type: cell-based; conditions: Homo sapiens; SK-MEL-28; single dose 10^−5 M; read-out: Growth inhibition (%)
CCRF-CEM = experiment: NCI-60 SRB screen; assay type: cell-based; conditions: Homo sapiens, single dose 10^−5 M, read-out: Growth inhibition (%)
SK-MEL-2 = experiment: NCI-60 SRB screen; assay type: cell-based, human; conditions: Homo sapiens; SK-MEL-2; single dose 10^−5 M; read-out: Growth inhibition (%)
MDA-MB-435 = experiment: NCI-60 SRB screen; assay type: cell-based; conditions: Homo sapiens, MDA-MB-435, read-out: Growth inhibition (%)
UACC-62 = experiment: NCI-60 SRB screen; assay type: cell-based, human; conditions: Homo sapiens; UACC-62; single dose 10^−5 M; read-out: Growth inhibition (%)
NCI-H23 = experiment: NCI-60 SRB screen; assay type: cell-based, human; conditions: Homo sapiens; NCI-H23; single dose 10^−5 M; read-out: Growth inhibition (%)
[1] = tested on: panel of 60 cancer cell lines; experiment: NCI-60 SRB screen, mean or range over the panel; assay type: cell-based, human; conditions: Homo sapiens; mean over the cell lines; single dose 10^−5 M; read-out: Mean growth inhibition (%)
HT-29 = experiment: NCI-60 SRB screen; assay type: cell-based; conditions: Homo sapiens; HT-29; single dose 10^−5 M; read-out: Growth inhibition (%)
CAKI-1 = experiment: NCI-60 SRB screen; assay type: cell-based, human; conditions: Homo sapiens; CAKI-1; single dose 10^−5 M; read-out: Growth inhibition (%)
UACC-257 = experiment: NCI-60 SRB screen; assay type: cell-based, human; conditions: Homo sapiens, UACC-257; UACC-275 (so in the source); single dose 10^−5 M; read-out: Growth inhibition (%)
NCI/ADR-RES = experiment: NCI-60 SRB screen; assay type: cell-based, human; conditions: Homo sapiens, single dose 10^−5 M, read-out: Growth inhibition (%)
KM12 = experiment: NCI-60 SRB screen; assay type: cell-based, human; conditions: Homo sapiens; KM12; single dose 10^−5 M; read-out: Growth inhibition (%)

COc1ccc(C2NC(=O)C(Cl)c3c2sc2c(F)cccc32)c(OC)c1 (stereo not drawn) [Compound 4a, 4-Chloro-1-(2,4-Dimethoxyphenyl)-8-fluoro-1,2-dihydro[1]benzothieno [2,3-c]pyridine-3(4H)-one]
inhibition at 10 µM (SR): 36.6%
inhibition at 10 µM (OVCAR-3): 1.99%
inhibition at 10 µM (NCI-H522): 8.58%
inhibition at 10 µM (MOLT-4): 4.69%
inhibition at 10 µM (HL-60(TB)): 0.73%
inhibition at 10 µM (SF-295): -2.33%
inhibition at 10 µM (OVCAR-4): -1.63%
inhibition at 10 µM (SW-620): -0.16%
inhibition at 10 µM (SK-OV-3): 0.53%
inhibition at 10 µM (LOX IMVI): 4.84%
inhibition at 10 µM (NCI-H322M): -4.72%
inhibition at 10 µM (M14): 3.25%
inhibition at 10 µM (UO-31): 40.3%
inhibition at 10 µM (MALME-3M): 9.21%
inhibition at 10 µM (IGROV1): 10.3%
inhibition at 10 µM (ACHN): 12.4%
inhibition at 10 µM (HOP-92): 9.64%
inhibition at 10 µM (COLO 205): -16.7%
inhibition at 10 µM (SN12C): 9.45%
inhibition at 10 µM (HCC-2998): -7.97%
inhibition at 10 µM (SF-268): 9.64%
inhibition at 10 µM (OVCAR-8): -0.71%
inhibition at 10 µM (786-0): 4.93%
inhibition at 10 µM (NCI-H226): 13.6%
inhibition at 10 µM (HOP-62): 9.42%
inhibition at 10 µM (SK-MEL-5): -1.74%
inhibition at 10 µM (HCT-15): -9.27%
inhibition at 10 µM (K-562): 12.5%
inhibition at 10 µM (HCT-116): -2.4%
inhibition at 10 µM (A549/ATCC): -4.25%
inhibition at 10 µM (NCI-H460): -1.09%
inhibition at 10 µM (EKVX): 2.22%
inhibition at 10 µM (TK-10): -25.5%
inhibition at 10 µM (SK-MEL-28): -1.74%
inhibition at 10 µM (CCRF-CEM): -1.02%
inhibition at 10 µM (SK-MEL-2): -23.2%
inhibition at 10 µM (MDA-MB-435): 8.55%
inhibition at 10 µM (UACC-62): 10.9%
inhibition at 10 µM (NCI-H23): 1.72%
inhibition at 10 µM [1]: 1.85%
inhibition at 10 µM (HT-29): -10.5%
inhibition at 10 µM (CAKI-1): 27.5%
inhibition at 10 µM (UACC-257): -12.8%
inhibition at 10 µM (NCI/ADR-RES): -5.94%
inhibition at 10 µM (KM12): 3.86%
